Reference: ChEMBL document CHEMBL1201862, “PubChem BioAssay data set” (2004)
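Tested at 5 concentrations; 48 h exposure; 96-well plates; endpoints linearly interpolated, else capped at highest concentration. GI50 is the concentration that inhibits growth by half.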 The source made the active and inactive calls. Rule as the data show it: active = GI50 up to about 1.1 µM and inactive = higher.

Experiments:
Assay in all cases: growth of human tumour cells (NCI), 48 h
EKVX = system: EKVX
SF-295 = system: SF-295
COLO 205 = system: COLO 205
A549 = system: A549
CAKI-1 = system: CAKI-1
A498 = system: A498
SK-OV-3 = system: SK-OV-3
SF-539 = system: SF-539
SN12C = system: SN12C
NCI/ADR-RES = system: NCI/ADR-RES
HOP-92 = system: HOP-92
Malme-3M = system: Malme-3M
MDA-MB-435 = system: MDA-MB-435
OVCAR-8 = system: OVCAR-8
M14 = system: M14
DU-145 = system: DU-145
OVCAR-4 = system: OVCAR-4
SNB-19 = system: SNB-19
UO-31 = system: UO-31
TK-10 = system: TK-10
MDA-N = system: MDA-N
SR = system: SR
SW-620 = system: SW-620
NCI-H460 = system: NCI-H460
NCI-H226 = system: NCI-H226
NCI-H23 = system: NCI-H23
RPMI-8226 = system: RPMI-8226
SK-MEL-28 = system: SK-MEL-28
UACC-257 = system: UACC-257
OVCAR-3 = system: OVCAR-3
U-251 = system: U-251
SK-MEL-2 = system: SK-MEL-2
UACC-62 = system: UACC-62
KM12 = system: KM12
HT-29 = system: HT-29
MCF7 = system: MCF7
CCRF-CEM = system: CCRF-CEM
SF-268 = system: SF-268
MOLT-4 = system: MOLT-4
RXF 393 = system: RXF 393
SK-MEL-5 = system: SK-MEL-5
T47D = system: T47D
HCC 2998 = system: HCC 2998
786-0 = system: 786-0
K562 = system: K562
BT-549 = system: BT-549
HCT-15 = system: HCT-15
LOX IMVI = system: LOX IMVI
IGROV-1 = system: IGROV-1
HOP-62 = system: HOP-62
SNB-75 = system: SNB-75
PC-3 = system: PC-3
MDA-MB-231 = system: MDA-MB-231
NCI-H522 = system: NCI-H522
ACHN = system: ACHN
HCT-116 = system: HCT-116
OVCAR-5 = system: OVCAR-5
HL-60 = system: HL-60
Hs-578T = system: Hs-578T

Measured: GI50

COc1ccc2c(c1)CC[C@@H]1[C@@H]2CC[C@]2(C)C(=O)/C(=C/c3ccncc3)C[C@@H]12
41.4 µM: HCT-15
inactive: EKVX 53.6 µM | SF-295 22.4 µM | COLO 205 25.3 µM | A549 30.8 µM | CAKI-1 46.5 µM | A498 27.3 µM | SK-OV-3 32.9 µM | SF-539 25.5 µM | SN12C 55.6 µM | NCI/ADR-RES 48.8 µM | HOP-92 27.9 µM | Malme-3M 25.8 µM | MDA-MB-435 30.4 µM | OVCAR-8 51.6 µM | M14 31.7 µM | DU-145 38.8 µM | OVCAR-4 48.2 µM | SNB-19 44.3 µM | UO-31 37.2 µM | TK-10 30.6 µM | MDA-N 42.6 µM | SR 47.2 µM | SW-620 31.2 µM | NCI-H460 27.8 µM | NCI-H226 63 µM | NCI-H23 35.3 µM | RPMI-8226 93.8 µM | SK-MEL-28 33.6 µM | UACC-257 29.3 µM | OVCAR-3 17.8 µM | U-251 54.3 µM | SK-MEL-2 22.5 µM | UACC-62 31.6 µM | KM12 27.2 µM | HT-29 33.1 µM | MCF7 61.4 µM | CCRF-CEM > 100 µM | SF-268 36.1 µM | MOLT-4 > 100 µM | RXF 393 18.2 µM | SK-MEL-5 20.2 µM | T47D 33.3 µM | HCC 2998 27.4 µM | 786-0 32.3 µM | K562 > 100 µM | BT-549 67.5 µM | LOX IMVI 37.8 µM | IGROV-1 56.1 µM | HOP-62 19.9 µM | SNB-75 32.1 µM | PC-3 29.3 µM | MDA-MB-231 64.7 µM | NCI-H522 30.4 µM | ACHN 42.5 µM | HCT-116 28.2 µM | OVCAR-5 48.9 µM

C=C(Nc1nc2ccc(C)cc2s1)C(=O)C(CC)C(=O)C(CC)CC1C(=O)NC(=O)NC1=O (stereo not drawn)
inactive: EKVX > 100 µM | SF-295 > 100 µM | COLO 205 > 100 µM | A549 > 100 µM | CAKI-1 > 100 µM | HL-60 > 100 µM | SK-OV-3 > 100 µM | SF-539 > 100 µM | SN12C > 100 µM | NCI/ADR-RES > 100 µM | HOP-92 > 100 µM | MDA-MB-435 > 100 µM | OVCAR-8 > 100 µM | M14 > 100 µM | DU-145 > 100 µM | OVCAR-4 > 100 µM | SNB-19 > 100 µM | UO-31 > 100 µM | TK-10 > 100 µM | MDA-N > 100 µM | SW-620 > 100 µM | NCI-H460 > 100 µM | NCI-H226 > 100 µM | NCI-H23 > 100 µM | SK-MEL-28 > 100 µM | UACC-257 > 100 µM | OVCAR-3 > 100 µM | U-251 > 100 µM | SK-MEL-2 > 100 µM | UACC-62 > 100 µM | KM12 > 100 µM | MCF7 > 100 µM | CCRF-CEM > 100 µM | SF-268 > 100 µM | MOLT-4 > 100 µM | RXF 393 > 100 µM | SK-MEL-5 > 100 µM | HCC 2998 > 100 µM | 786-0 > 100 µM | BT-549 > 100 µM | LOX IMVI > 100 µM | IGROV-1 > 100 µM | HOP-62 32 µM | Hs-578T > 100 µM | SNB-75 > 100 µM | PC-3 > 100 µM | MDA-MB-231 > 100 µM | NCI-H522 > 100 µM | ACHN > 100 µM | HCT-116 > 100 µM | OVCAR-5 > 100 µM
> 100 µM: HCT-15

CC(C)(C)c1cc2c(O)c(c1)COCc1cc(C(C)(C)C)cc(c1O)COCc1cc(C(C)(C)C)cc(c1O)COC2
> 100 µM: HCT-15
inactive: EKVX > 100 µM | SF-295 > 100 µM | COLO 205 > 100 µM | A549 > 100 µM | HL-60 31.1 µM | A498 46.6 µM | SK-OV-3 > 100 µM | NCI/ADR-RES > 100 µM | HOP-92 > 100 µM | MDA-MB-435 > 100 µM | OVCAR-8 > 100 µM | M14 88.5 µM | DU-145 32.5 µM | OVCAR-4 > 100 µM | SNB-19 6.04 µM | UO-31 35.5 µM | TK-10 > 100 µM | SR > 100 µM | SW-620 > 100 µM | NCI-H460 > 100 µM | NCI-H226 > 100 µM | NCI-H23 46.1 µM | RPMI-8226 50.4 µM | SK-MEL-28 > 100 µM | UACC-257 > 100 µM | OVCAR-3 > 100 µM | U-251 > 100 µM | SK-MEL-2 > 100 µM | UACC-62 > 100 µM | KM12 64.6 µM | MCF7 > 100 µM | CCRF-CEM 59 µM | MOLT-4 48 µM | RXF 393 32.4 µM | SK-MEL-5 99.3 µM | T47D > 100 µM | HCC 2998 > 100 µM | 786-0 19.1 µM | K562 > 100 µM | BT-549 > 100 µM | LOX IMVI 29.4 µM | IGROV-1 > 100 µM | HOP-62 > 100 µM | SNB-75 9.35 µM | PC-3 > 100 µM | ACHN 63.2 µM | HCT-116 97.3 µM | OVCAR-5 > 100 µM
